Measured values from ChEMBL document CHEMBL3044672, “N9- and N7-(Chloromethyl Phenymethyl)Chloropurine Derivatives from , '-Dichloroxylenes: Synthesis and Anticancer Activity” (2005).

Columns and labels:
Assay type in all cases: functional
A498 = assay: Cytotoxicity against Homo sapiens (human) A498 cells after 48 hr by sulforhodamine B assay; conditions: A498, 48 h
ACHN = assay: Cytotoxicity against Homo sapiens (human) ACHN cells after 48 hr by sulforhodamine B assay
786-0 = assay: Cytotoxicity against Homo sapiens (human) 786-0 cells after 48 hr by sulforhodamine B assay; conditions: 786-0, 48 h
OVCAR-5 = assay: Cytotoxicity against Homo sapiens (human) OVCAR5 cells after 48 hr by sulforhodamine B assay; conditions: OVCAR-5, 48 h
IGROV-1 = assay: Cytotoxicity against Homo sapiens (human) IGROV1 cells after 48 hr by sulforhodamine B assay; conditions: IGROV-1, 48 h
OVCAR-3 = assay: Cytotoxicity against Homo sapiens (human) OVCAR3 cells after 48 hr by sulforhodamine B assay; conditions: OVCAR-3, 48 h
UACC-257 = assay: Cytotoxicity against Homo sapiens (human) UACC257 cells after 48 hr by sulforhodamine B assay; conditions: UACC-257, 48 h
SK-MEL-28 = assay: Cytotoxicity against Homo sapiens (human) SK-MEL-28 cells after 48 hr by sulforhodamine B assay; conditions: SK-MEL-28, 48 h
SK-MEL-2 = assay: Cytotoxicity against Homo sapiens (human) SK-MEL-2 cells after 48 hr by sulforhodamine B assay; conditions: SK-MEL-2, 48 h
M14 = assay: Cytotoxicity against Homo sapiens (human) M14 cells after 48 hr by sulforhodamine B assay; conditions: M14, 48 h
U-251 = assay: Cytotoxicity against Homo sapiens (human) U251 cells after 48 hr by sulforhodamine B assay; conditions: U-251, 48 h
T47D = assay: Cytotoxicity against Homo sapiens (human) T47D cells after 48 hr by sulforhodamine B assay
MDA-MB-435 = assay: Cytotoxicity against Homo sapiens (human) MDA-MB-435 cells after 48 hr by sulforhodamine B assay; conditions: MDA-MB-435, 48 h
Hs-578T = assay: Cytotoxicity against Homo sapiens (human) Hs 578T cells after 48 hr by sulforhodamine B assay
[1] = Cytotoxicity against Homo sapiens (human) NCI-ADR-RES cells after 48 hr by sulforhodamine B assay
DU-145 = assay: Cytotoxicity against Homo sapiens (human) DU145 cells after 48 hr by sulforhodamine B assay; conditions: DU-145, 48 h
UO-31 = assay: Cytotoxicity against Homo sapiens (human) UO31 cells after 48 hr by sulforhodamine B assay; conditions: UO-31, 48 h
TK-10 = assay: Cytotoxicity against Homo sapiens (human) TK10 cells after 48 hr by sulforhodamine B assay; conditions: TK-10, 48 h
CAKI-1 = assay: Cytotoxicity against Homo sapiens (human) Caki1 cells after 48 hr by sulforhodamine B assay; conditions: CAKI-1, 48 h
SF-295 = assay: Cytotoxicity against Homo sapiens (human) SF295 cells after 48 hr by sulforhodamine B assay; conditions: SF-295, 48 h
SW-620 = assay: Cytotoxicity against Homo sapiens (human) SW620 cells after 48 hr by sulforhodamine B assay; conditions: SW-620, 48 h
HCT-15 = assay: Cytotoxicity against Homo sapiens (human) HCT15 cells after 48 hr by sulforhodamine B assay; conditions: HCT-15, 48 h
HCT-116 = assay: Cytotoxicity against Homo sapiens (human) HCT116 cells after 48 hr by sulforhodamine B assay; conditions: HCT-116, 48 h
HCC 2998 = assay: Cytotoxicity against Homo sapiens (human) HCC2998 cells after 48 hr by sulforhodamine B assay; conditions: HCC 2998, 48 h
NCI-H460 = assay: Cytotoxicity against Homo sapiens (human) NCI-H460 cells after 48 hr by sulforhodamine B assay; conditions: NCI-H460, 48 h
NCI-H322M = assay: Cytotoxicity against Homo sapiens (human) NCI-H322M cells after 48 hr by sulforhodamine B assay
NCI-H226 = assay: Cytotoxicity against Homo sapiens (human) NCI-H226 cells after 48 hr by sulforhodamine B assay; conditions: NCI-H226, 48 h
A549 = assay: Cytotoxicity against Homo sapiens (human) A549 cells after 48 hr by sulforhodamine B assay; conditions: A549, 48 h
MOLT-4 = assay: Cytotoxicity against Homo sapiens (human) MOLT4 cells after 48 hr by sulforhodamine B assay; conditions: MOLT-4, 48 h
CCRF-CEM = assay: Cytotoxicity against Homo sapiens (human) CCRF-CEM cells after 48 hr by sulforhodamine B assay
MCF7 = assay: Cytotoxicity against Homo sapiens (human) MCF7 cells assessed as cell growth at 10^-4 M after 48 hr by Alamar blue assay; conditions: MCF7, 48 h, read-out: Activity
[2] = read-out: LC50 (the source's name)

ClCc1ccc(Cn2cnc3nc(Cl)nc(Cl)c32)cc1
GI50 (A498): 11.2 µM | LC50 (lethal concentration, 50% cell kill) (A498): 49 µM | TGI (A498): 23.4 µM | GI50 (ACHN): 1.9 µM | TGI (ACHN): 3.31 µM | CC50 (ACHN; [2]): 5.75 µM | GI50 (786-0): 1.9 µM | LC50 (786-0): 7.41 µM | TGI (786-0): 3.71 µM | GI50 (OVCAR-5): 2.18 µM | TGI (OVCAR-5): 4.26 µM | CC50 (OVCAR-5; [2]): 8.31 µM | GI50 (IGROV-1): 1.41 µM | LC50 (IGROV-1): 5.75 µM | TGI (IGROV-1): 2.81 µM | GI50 (OVCAR-3): 0.3 µM | LC50 (OVCAR-3): 2.51 µM | TGI (OVCAR-3): 0.72 µM | GI50 (UACC-257): 2.23 µM | LC50 (concentration killing 50% of cells) (UACC-257): 34.7 µM | TGI (UACC-257): 5.49 µM | GI50 (SK-MEL-28): 2.18 µM | LC50 (concentration killing 50% of cells) (SK-MEL-28): > 100 µM | TGI (SK-MEL-28): 5.12 µM | GI50 (SK-MEL-2): 1.12 µM | LC50 (concentration killing 50% of cells) (SK-MEL-2): 6.45 µM | TGI (SK-MEL-2): 2.69 µM | GI50 (M14): 1.44 µM | LC50 (M14): 6.91 µM | TGI (M14): 3.16 µM | GI50 (U-251): 1.77 µM | LC50 (concentration killing 50% of cells) (U-251): 5.75 µM | TGI (U-251): 3.23 µM | GI50 (T47D): 10.2 µM | LC50 (T47D): > 100 µM | TGI (T47D): 46.8 µM | GI50 (MDA-MB-435): 1.62 µM | LC50 (MDA-MB-435): 5.75 µM | TGI (MDA-MB-435): 3.01 µM | GI50 (Hs-578T): 19.1 µM | LC50 (Hs-578T): > 100 µM | TGI (Hs-578T): 44.7 µM | GI50 [1]: 2.08 µM | TGI [1]: 4.46 µM | GI50 (DU-145): 1.81 µM | LC50 (DU-145): 6.6 µM | TGI (DU-145): 3.46 µM | GI50 (UO-31): 1.44 µM | LC50 (concentration causing 50% net cell kill) (UO-31): 5.62 µM | TGI (UO-31): 2.88 µM | GI50 (TK-10): 0.12 µM | TGI (TK-10): 0.29 µM | CC50 (TK-10; [2]): 0.72 µM | GI50 (CAKI-1): 1.44 µM | TGI (CAKI-1): 2.75 µM | CC50 (CAKI-1; [2]): 5.37 µM | GI50 (SF-295): 1.81 µM | TGI (SF-295): 3.31 µM | CC50 (SF-295; [2]): 5.88 µM | GI50 (SW-620): 13.2 µM | TGI (SW-620): 28.8 µM | CC50 (SW-620; [2]): 64.6 µM | GI50 (HCT-15): 1.81 µM | TGI (HCT-15): 3.54 µM | CC50 (HCT-15; [2]): 6.76 µM | GI50 (HCT-116): 0.12 µM | TGI (HCT-116): 1.24 µM | CC50 (HCT-116; [2]): > 100 µM | GI50 (HCC 2998): 2.04 µM | TGI (HCC 2998): 3.8 µM | CC50 (HCC 2998; [2]): 7.07 µM | GI50 (NCI-H460): 15.5 µM | TGI (NCI-H460): 35.5 µM | CC50 (NCI-H460; [2]): 79.4 µM | GI50 (NCI-H322M): 0.67 µM | TGI (NCI-H322M): 1.9 µM | CC50 (NCI-H322M; [2]): 4.46 µM | GI50 (NCI-H226): 1.23 µM | TGI (NCI-H226): 3.89 µM | CC50 (NCI-H226; [2]): 15.5 µM | GI50 (A549): 2.13 µM | TGI (A549): 4.07 µM | CC50 (A549; [2]): 7.94 µM | GI50 (MOLT-4): 1.38 µM | TGI (MOLT-4): 5.49 µM | CC50 (MOLT-4; [2]): > 100 µM | GI50 (CCRF-CEM): 14.8 µM | TGI (CCRF-CEM): 31.6 µM | CC50 (CCRF-CEM; [2]): 66.1 µM | growth at 100 µM (MCF7): 1%
